Source: US20240197938A1, “ANTIMICROBIAL COMPOUNDS BASED ON GLUCOHEPTONIC ACIDS AND THEIR SALTS” (HARCROS CHEMICALS, INC., priority 2021, published 2024)

What was measured:
Assay in all cases: ASTM E2315-16 Time-Kill Procedure
Assay type in all cases: cell-based
[1] = tested on: Staphylococcus epidermidis
Method: (§1) Select compounds were tested for antimicrobial activity using ASTM method […]-16 (Standard Guide for Assessment of Antimicrobial Activity using a Time-Kill Procedure). Six microbes were tested: Candida albicans, Staphylococcus aureus, Staphylococcus epidermidis. Escherichia coli, Salmonella abony, and Listeria monocytogenes. Four chlorhexidine salts were tested: chlorhexidine di-α-glucoheptonate (Sample G), chlorhexidine di-β73-glucoheptonate (Sample H), chlorhexidine digluconate (Sample I), and chlorhexidine diacetate (Sample P). Both chlorhexidine diglucoheptonate salts were prepared at a 2:1 molar ratio of glucoheptonic acid to chlorhexidine. Dilutions of each salt were prepared using sterile water (20-30 ppm hardness), to achieve the desired wt. % concentration. Two glucoheptonic acids were evaluated for antimicrobial activity against the same six microbes as Example 13. Sample L was α-glucoheptonic acid. Sample M was β73-glucoheptonic acid. Benzalkonium salts were also tested using the same procedure as set forth in Example 13. The samples were benzalkonium chloride (C12-C16) (Sample C), benzalkonium chloride (C12-C14) (Sample D), benzalkonium chloride in combination with a stoichiometric amount of α-glucoheptonate (Sample F), and benzalkonium chloride in combination with a molar excess of α-glucoheptonate (Sample N). Sample F was prepared by mixing and extensively heating a stoichiometric quantity (1:1) of sodium α-glucoheptonate with benzalkonium chloride, typified by the C12-14 alkyl chain. Sample N was prepared by simply blending benzalkonium chloride, typified by the C12-16 chain, with a molar excess of sodium α-glucoheptonate (1.6:1). Both Samples F and N contain sodium chloride.

[2] = tested on: Candida albicans
Method: as §1

[3] = tested on: Staphylococcus aureus
Method: as §1

[4] = 2.5 % w/w, contact time 10 minutes
[5] = 5.0 % w/w, contact time 5 minutes
[6] = 5.0 % w/w, contact time 10 minutes

For `O=C(O)[C@H](O)[C@H](O)[C@@H](O)[C@H](O)[C@H](O)CO` [Sample L, α-glucoheptonic acid], the “Log Reduction (LR)” value [1, 4] was 3.39, the “Log Reduction (LR)” value [1, 5] was 3.05 and the “Log Reduction (LR)” value [1, 6] was 3.50. For the same compound, the “Log Reduction (LR)” value [2, 4] was 3.65 and the “Log Reduction (LR)” value [2, 6] was 3.00.
With `O=C(O)[C@H](O)[C@H](O)[C@@H](O)[C@H](O)[C@H](O)CO` [Sample M, β73-glucoheptonic acid] the “Log Reduction (LR)” value ([1]; 1.0 % w/w, contact time 10 minutes) was 3.47, the “Log Reduction (LR)” value ([1]; 2.5 % w/w, contact time 5 minutes) was 3.17 and the “Log Reduction (LR)” value [1, 4] was 3.50. The “Log Reduction (LR)” value [1, 5] was 3.39, the “Log Reduction (LR)” value [1, 6] was 3.47 and the “Log Reduction (LR)” value [2, 5] was 3.47. For the same compound, the “Log Reduction (LR)” value [2, 6] was 4.00, the “Log Reduction (LR)” value [3, 4] was 3.13 and the “Log Reduction (LR)” value [3, 5] was 4.07. For the same compound, the “Log Reduction (LR)” value [3, 6] was 4.13.
